Test results: ChEMBL document CHEMBL6121055, “Strategic Mutations in Designer Native Peptides Combat NLRP3 Inflammasome Activation in Neurodegenerative Disorders” (J Med Chem, 2025)
Calls of active or inactive are those of the source. The calls are words filed in the database; no cut-off is given here. Residues, ends and D or L forms follow the SMILES beside them. *: point of attachment. Biotin = O=C1N[C@H]2[C@H](CS[C@H]2CCCCC(=O)*)N1

Legend:
[1] = Cytotoxicity against mouse N9 cells assessed as reduction in cell viability at 100 uM incubated for 24 hrs by MTT assay; format: toxicity, cell-based; conditions: n9, 24 h
N9 [2] = assay: Inhibition of NLRP3 inflammasome activation in LPS/ATP-stimulated mouse N9 cells assessed as inhibition of caspase-1 mRNA expression at 20 uM by qRT-PCR analysis; format: cell-based
N9 [3] = assay: Inhibition of NLRP3 inflammasome activation in LPS/ATP-stimulated mouse N9 cells assessed as inhibition of IL-1beta mRNA expression at 20 uM by qRT-PCR analysis; format: cell-based
N9 [4] = assay: Binding affinity to NLRP3 in LPS-stimulated mouse N9 cells at 10 to 30 uM incubated overnight by Western blot based pull down assay; format: cell-based; conditions: dose 10-30 µM
[5] = biological target: T1, Apoptosis-associated speck-like protein containing a CARD (Mus musculus) (UniProt Q9EPB4); assay: Binding affinity to ASC in LPS-stimulated mouse N9 cells at 10 to 30 uM incubated overnight by Western blot based pull down assay; format: cell-based; conditions: dose 10-30 µM
T1 sequence (whole entry): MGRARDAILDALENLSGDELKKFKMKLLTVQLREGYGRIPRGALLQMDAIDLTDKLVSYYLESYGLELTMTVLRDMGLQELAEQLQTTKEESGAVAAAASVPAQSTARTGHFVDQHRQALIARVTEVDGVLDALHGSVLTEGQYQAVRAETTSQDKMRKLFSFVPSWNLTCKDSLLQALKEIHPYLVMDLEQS

N9 [6] = assay: Inhibition of NLRP3 inflammasome activation mediated pyroptosis in LPS/ATP-stimulated mouse N9 cells assessed as reduction in cell death at 100 uM measured after 24 hrs by MTT assay; format: cell-based
[7] = biological target: Apoptosis-associated speck-like protein containing a CARD (Homo sapiens, UniProt Q9ULZ3); assay: Binding affinity to Alexa647-labeled ASC (unknown origin) assessed as dissociation constant incubated for 5 mins by fluorescence spectra based analysis
Sequence of Apoptosis-associated speck-like protein containing a CARD (Q9ULZ3 whole entry): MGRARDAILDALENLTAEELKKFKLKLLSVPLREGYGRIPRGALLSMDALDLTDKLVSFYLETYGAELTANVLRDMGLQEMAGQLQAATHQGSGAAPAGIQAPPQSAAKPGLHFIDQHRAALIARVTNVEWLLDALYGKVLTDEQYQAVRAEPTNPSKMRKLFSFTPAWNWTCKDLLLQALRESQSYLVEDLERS

| Compound | Activity [1] | other results |
| --- | --- | --- |
| CC[C@H](C)[C@H](NC(=O)[C@H](CS)NC(=O)CNC(=O)[C@@H](N)CCCCN)C(=O)N1CCC[C@H]1C(=O)N[C@@H](CC(C)C)C(=O)N1CCC[C@H]1C(=O)N[C@@H](CCCNC(=N)N)C(=O)O (H-KGCIPLPR-OH) | Non-toxic | – |
| CC[C@H](C)[C@H](NC(=O)[C@H](CCSC)NC(=O)[C@H](CC(C)C)NC(=O)[C@@H](NC(=O)[C@H](C)NC(=O)[C@H](CC(C)C)NC(=O)[C@@H](N)CC(=O)O)[C@@H](C)O)C(=O)N[C@@H](CC(=O)O)C(=O)N[C@@H](Cc1ccccc1)C(=O)O (H-DLATLMIDF-OH) | Non-toxic | – |
| CC[C@H](C)[C@H](NC(=O)[C@H](Cc1c[nH]c2ccccc12)NC(=O)[C@@H](N)C(C)C)C(=O)N[C@@H](Cc1ccccc1)C(=O)N[C@@H](C)C(=O)N[C@@H](CCCCN)C(=O)N[C@@H](C)C(=O)N[C@@H](CCCCN)C(=O)N[C@@H](CCCNC(=N)N)C(=O)N[C@@H](CC(=O)O)C(=O)O (H-VWIFAKAKRD-OH) | Non-toxic | inhibition (N9 [2]): Active; inhibition (N9 [3]): Active |
| CSCC[C@H](NC(=O)[C@H](CO)NC(=O)[C@H](C)NC(=O)[C@@H](NC(=O)[C@H](CC(C)C)NC(=O)[C@H](CC(N)=O)NC(=O)[C@H](CCC(=O)O)NC(=O)[C@H](CC(C)C)NC(=O)[C@H](C)NC(=O)[C@@H](N)CC(=O)O)[C@@H](C)O)C(=O)N[C@@H](CC(=O)O)C(=O)O (H-DALENLTASMD-OH) | Non-toxic | – |
| CC[C@H](C)[C@H](NC(=O)[C@H](Cc1c[nH]c2ccccc12)NC(=O)[C@@H](N)C(C)C)C(=O)N[C@@H](CC(C)C)C(=O)N[C@@H](C)C(=O)N[C@@H](CCCCN)C(=O)N[C@@H](C)C(=O)N[C@@H](CCC(N)=O)C(=O)N[C@@H](CCCNC(=N)N)C(=O)N[C@@H](CC(=O)O)C(=O)O (H-VWILAKAQRD-OH) | Non-toxic | – |
| CC[C@H](C)[C@H](NC(=O)[C@H](C)NC(=O)[C@H](C)NC(=O)[C@H](CC(C)C)NC(=O)[C@@H](NC(=O)[C@H](Cc1c[nH]c2ccccc12)NC(=O)[C@@H](NC(=O)CCCC[C@@H]1SC[C@@H]2NC(=O)N[C@@H]21)C(C)C)[C@@H](C)CC)C(=O)N[C@@H](CC(N)=O)C(=O)N[C@@H](CCCNC(=N)N)C(=O)N[C@@H](CCCNC(=N)N)C(=O)O (Biotin-VWILAAINRR-OH) | – | Activity (N9 [4]): inactive; Activity [5]: Active |
| CSCC[C@H](NC(=O)[C@@H](N)CO)C(=O)N[C@@H](CC(=O)O)C(=O)N[C@@H](C)C(=O)N[C@@H](CC(C)C)C(=O)N[C@@H](CC(=O)O)C(=O)N[C@@H](CC(C)C)C(=O)N[C@H](C(=O)N[C@@H](CC(=O)O)C(=O)N[C@@H](CCCCN)C(=O)N[C@@H](CC(C)C)C(=O)N[C@H](C(=O)N[C@@H](CO)C(=O)O)C(C)C)[C@@H](C)O (H-SMDALDLTDKLVS-OH) | Non-toxic | – |
| C[C@H](NC(=O)[C@@H](N)CCCCN)C(=O)N[C@@H](CCC(N)=O)C(=O)N[C@@H](CCCNC(=N)N)C(=O)N[C@@H](CC(=O)O)C(=O)O (H-KAQRD-OH) | Non-toxic | – |
| C[C@H](NC(=O)[C@@H](N)CCCCN)C(=O)N[C@@H](CCCCN)C(=O)N[C@@H](CCCNC(=N)N)C(=O)N[C@@H](CC(=O)O)C(=O)O (H-KAKRD-OH) | Non-toxic | inhibition (N9 [2]): Active; inhibition (N9 [3]): Active |
| CC(C)C[C@H](NC(=O)[C@H](C)NC(=O)[C@@H](N)CC(=O)O)C(=O)N[C@@H](CCC(=O)O)C(=O)N[C@@H](CC(N)=O)C(=O)O (H-DALEN-OH) | Non-toxic | – |
| CC[C@H](C)[C@H](NC(=O)[C@H](C)NC(=O)[C@H](C)NC(=O)[C@H](Cc1ccccc1)NC(=O)[C@@H](NC(=O)[C@H](Cc1c[nH]c2ccccc12)NC(=O)[C@@H](N)C(C)C)[C@@H](C)CC)C(=O)N[C@@H](CC(N)=O)C(=O)N[C@@H](CCCNC(=N)N)C(=O)N[C@@H](CCCNC(=N)N)C(=O)O (H-VWIFAAINRR-OH) | Non-toxic | inhibition (N9 [6]): Active; Kd [7]: 0.85 µM; inhibition (N9 [2]): Active; Better Activity Observed; inhibition (N9 [3]): Active; Better Activity Observed |
